Values of other authors, collected in patent US11717481B2, “Reduction of flake-like aggregation in nanoparticulate active agent compositions” (Alkermes Pharma Ireland Limited, priority 2009, dated 2023).

Cc1cnc(NC(=O)C2=C(O)c3ccccc3S(=O)(=O)N2C)s1 [Meloxicam, 4-hydroxy-2-methyl-N-(5-methyl-2-thiazolyl)-2H-1,2-benzothiazine-3-carboxamide-1,1-dioxide]
solubility in water: Practically insoluble
